pEC50: −log10 of the molar value.
How the values were obtained:
[1] = tested on: memory disruption induced by MK-801 in male Long Evans rats; assay: Novel Object Recognition (NOR) test, memory disruption induced by MK-801; assay type: in vivo, rat; conditions: any dose tested, oral
Protocol: In the present study, a memory saving model was used. MK-801 (Dizocilpine), an uncompetitive antagonist of the NMDA receptor was used to cause deficit of recognition memory. sGC stimulators were evaluated for their efficacy to prevent memory impairment induced by MK-801.
Adult male Long-Evans rats (275-299 gram at arrival from Envigo, Indianapolis, IN) were used in this study. Rats were placed in the experimental rooms and assigned unique identification numbers (tail marks). Rats were housed 2 per cage in polycarbonate cages with filter tops and acclimated for at least 7 days prior to testing. […]
NOR test was conducted in an open-field arena (40×40 cm) placed in a sound-attenuated room under dimmed lighting. […] All training and testing trials were video-taped and scored by an observer blind to treatments.
On Days 1 and 2, rats were allowed to freely explore the arena (no objects inside) for a 5-minute habituation period. […] Each rat was placed in the arena facing the same direction at the same position, and the time spent actively exploring the objects during a 3-minute training period (T1) was recorded. […] Each rat was placed back into the test arena in the presence of one familiar object and one novel object for 5 minutes, and the time spent exploring both objects was recorded. […]

[2] = tested on: sGC; assay: cGMP neuronal cell-based assay (rat primary neurons); conditions: rat primary hippocampal neurons, DETA-NO 10 μM or 30 μM, cGMP by LC-MS/MS; I-20 and I-14: average of free acid and sodium salt; read-out: sGC Neuron EC50
Protocol: Rat primary neurons were isolated from fetuses of 18-day pregnant Sprague-Dawley females. The fetuses were collected in Hanks' balanced salt solution (HBSS) and brains were rapidly removed. The cerebral hippocampi were isolated and mechanically fragmented. Further tissue digestion was performed with 0.25% (wt/vol) trypsin solution in HBSS without Ca2+ and Mg2+ for 15 min at 37° C. After trypsination, cells were washed and resuspended in neurobasal medium supplemented with 0.5 mM L-glutamine, 12.5 uM glutamic acid, 2% B-27 and 100 U/mL penicillin, and 100 μg/mL streptomycin. Cells were plated at a density of 26×10^3 or 3×10^4 or 4×10^4 cells/well in a poly-D-lysine coated 384-well flat clear-bottom plate (Corning Cat No 354662). Cells were incubated 6-7 days at 37° C. in a humidified chamber with 5% CO2. Media was removed and cells were washed 1× with HBSS containing Ca2+ and Mg2+, and replaced with 40 uL HBSS containing 0.5 mM IBMX, and incubated for 15 minutes at 37° C. […] Following centrifugation at 4° C. for 5 minutes at 1000×g to pellet cell debris, the supernatant was aspirated to a clean plate and the samples were analyzed for cGMP content. cGMP concentrations were determined from each sample using LC-MS/MS.
Concentration response data were analyzed using a 4-parameter fit (log (agonist) vs. response-variable slope). […]

- pEC50 [2]: ≥ 7.00
SMILES: Cc1cc(F)c(Cc2nc(-c3ncc(F)c(O)n3)cn3ccnc23)cc1F [Compound I-14, 5-fluoro-2-(8-(2,5-difluoro-4-methylbenzyl)imidazo[1,2-a]pyrazin-6-yl)pyrimidin-4-ol]
- obvious side effects in NOR study [1]: None of the rats in this study showed obvious side effects
